Tested on: patients with inadequately managed, severe chronic low back pain with or without a neuropathic pain component
Assay: Hospital Anxiety and Depression Scale (HADS) anxiety score; open-label phase IIIb trial, tapentadol prolonged release 50-250 mg bid for up to 12 weeks
Format: in vivo, human patients
Settings: for HADS anxiety score, course: Baseline to Week 12
Protocol: As used herein, the “anxiety score” is a value determining the degree of the […]. The scale of anxiety scores covers the range from 0 to 21, wherein the degree of the anxiety is high in case of high values and low in case of low values. In a group of tested subjects, typically the mean or mediate values of anxiety scores are determined and referred to. The mean value is the sum of all anxiety scores divided by the number of subjects. The mediate value is the middle anxiety score in the set of determined scores. Preferably, the “anxiety score” is defined as in the experimental section.
A subgroup suffering from neuropathic pain due to lumbar radiculopathy was also investigated.
This was a multicenter, multinational, open-label, effectiveness phase IIIb trial to evaluate effectiveness and safety of tapentadol prolonged release treatment in patients with inadequately managed, severe chronic low back pain with or without a neuropathic pain component. Patients taking WHO Step II analgesics discontinued those analgesics before starting study medication; patients taking Step I analgesics and/or centrally acting co-analgesics continued on the same dose. […] All patients received tapentadol prolonged release (50-250 mg bid) for up to 12 weeks (5-week titration period and a 7-week maintenance period). Tapentadol immediate release (IR) 50 mg (twice a day, hours apart) was permitted (combined total daily dose of tapentadol prolonged release and tapentadol IR, 500 mg/day). The primary efficacy endpoint was the change from Baseline to Week 6 (when tapentadol prolonged release doses were stable) in average pain intensity on the 11-point NRS-3 using the last observation carried forward (LOCF) for imputing missing scores. The painDETECT questionnaire was used to evaluate the likelihood of a neuropathic pain component of low back pain; patients were classified as painDETECT “negative,” “unclear,” or “positive.” The population of patients classified as painDETECT negative was limited to approximately 30% of the total population.
In the painDETECT positive trial population the “diagnosis of lumbar radiculopathy” was evaluated which was defined per study protocol according following criteria: • typical dermatomal pain (radiating beyond the knee towards the foot, pain evoked by stretching within distribution of the ischiadic/femoral nerve) • signs of root dysfunction: • such as sensory impairment, motor symptoms from compression of lumbar nerve root (L4, L5, S1). • and/or absent or diminished quadriceps femoris or triceps surae reflexes. • and/or quantitative sensory testing (QST) deficit and pain distribution present in the same dermatomal area.
All subjects completed Short Form-36 (SF-36) and EuroQol-5 Dimension (EQ-5D) questionnaires and the Hospital Anxiety and Depression Scale (HADS). The Patient Global Impression of Change (PGIC) and Clinical global impression of change (CGIC) were also used as secondary endpoints. For both tests, patients completed the statement, “since I began trial treatment, I would rate my overall condition as,” using 7 possible responses (“very much worse” to “very much improved”). Adverse events were recorded throughout the trial.
In the following • (i) N is the number of subjects of the specified diagnosis group, • (ii) n is the number of subjects with data available, • (iii) “Mean” is the mean score of the subjects, i.e. the sum of all scores is divided by the number of subjects, • (iv) SD is the standard deviation, • (v) “Median” is the median score of the subjects, i.e. the middle score in the set of scores, • (vi) “Range” is the range of scores of the subjects, i.e. the range defined by the lowest and the highest score of the set of scores. First, the depression scores are presented. The total number of subjects in the clinical study: N=175

[1] = Visit 1, defined neuropathic pain N=85
[2] = Visit 1, positive diagnosis of lumbar radiculopathy-neuropathic pain subset N=44
[3] = Visit 1, presumed neuropathic pain component N=41
[4] = Visit 1, presumed or defined neuropathic pain component N=126
[5] = Visit 1, subjects with nociceptive pain N=49
[6] = Visit 5, defined neuropathic pain N=85
[7] = Visit 5, positive diagnosis of lumbar radiculopathy-neuropathic pain subset N=44
[8] = Visit 5, presumed neuropathic pain component N=41
[9] = Visit 5, presumed or defined neuropathic pain component N=126
[10] = Visit 5, subjects with nociceptive pain N=49
[11] = Visit 6, defined neuropathic pain N=85
[12] = Visit 6, positive diagnosis of lumbar radiculopathy-neuropathic pain subset N=44
[13] = Visit 6, presumed neuropathic pain component N=41
[14] = Visit 6, presumed or defined neuropathic
[15] = Visit 6, presumed or defined neuropathic pain component N=126
[16] = Visit 6, subjects with nociceptive pain N=49
[17] = Visit 7, defined neuropathic pain N=85
[18] = Visit 7, positive diagnosis of lumbar radiculopathy-neuropathic pain subset N=44
[19] = Visit 7, presumed neuropathic pain component N=41
[20] = Visit 7, presumed or defined neuropathic pain component N=126
[21] = Visit 7, subjects with nociceptive pain N=49
[22] = Visit 8, defined neuropathic pain N=85

In the case of CC[C@@H](c1cccc(O)c1)[C@@H](C)CN(C)C [tapentadol, (−)-(1R,2R)-3-(3-dimethylamino-1-ethyl-2-methyl-propyl)-phenol], the “HADS anxiety score, course” value (painDETECT negative) is reported as “not significantly”, the “HADS anxiety score, course” value (painDETECT unclear/positive, P<0.0001 at Visit 12) is reported as “improved steadily” and the “HADS anxiety score, course” value (positive diagnosis of lumbar radiculopathy-neuropathic pain subset, p=0.0105 at Visit 12) is reported as “improved steadily”. The “Anxiety score Mean (SD)” value [1] was 8.3 (4.01), the “Anxiety score Median” value [1] was 8.0 and the “Anxiety score Mean (SD)” value [2] was 8.7 (3.64). For the same compound, the “Anxiety score Median” value [2] was 9.0, the “Anxiety score Mean (SD)” value [3] was 7.9 (4.52) and the “Anxiety score Median” value [3] was 7.0. The “Anxiety score Mean (SD)” value [4] was 8.2 (4.16), the “Anxiety score Median” value [4] was 8.0 and the “Anxiety score Mean (SD)” value [5] was 5.9 (4.19). For the same compound, the “Anxiety score Median” value [5] was 6.0, the “Anxiety score Mean (SD)” value (Visit 1, total subjects N=175) was 7.6 (4.28) and the “Anxiety score Median” value (Visit 1, total subjects N=175) was 7.0. For the same compound, the “Anxiety score Mean (SD)” value [6] was 7.2 (3.89), the “Anxiety score Median” value [6] was 8.0 and the “Anxiety score Mean (SD)” value [7] was 6.8 (3.39). For the same compound, the “Anxiety score Median” value [7] was 7.5, the “Anxiety score Mean (SD)” value [8] was 6.7 (4.22) and the “Anxiety score Median” value [8] was 7.0. The “Anxiety score Mean (SD)” value [9] was 7.0 (3.98), the “Anxiety score Median” value [9] was 7.0 and the “Anxiety score Mean (SD)” value [10] was 6.1 (3.80). For the same compound, the “Anxiety score Median” value [10] was 5.0, the “Anxiety score Mean (SD)” value (Visit 5, total subjects N=175) was 6.8 (3.94) and the “Anxiety score Median” value (Visit 5, total subjects N=175) was 7.0. The “Anxiety score change from baseline Mean (SD)” value (from here on “Anxiety score change … (SD)”) (Visit 6) was −1.6 (3.58), the “Anxiety score change from baseline Median” value (Visit 6) was −1.0 and the “Anxiety score change … (SD)” value (Visit 6, defined neuropathic) was −1.4 (3.44). For the same compound, the “Anxiety score change from baseline Median” value (Visit 6, defined neuropathic) was −1.0, the “Anxiety score Mean (SD)” value [11] was 6.9 (3.66) and the “Anxiety score Median” value [11] was 6.0. The “Anxiety score change … (SD)” value (Visit 6, lumbar radiculopathy) was −1.4 (3.88), the “Anxiety score change from baseline Median” value (Visit 6, lumbar radiculopathy) was −0.5 and the “Anxiety score change … (SD)” value (Visit 6, nociceptive) was −0.3 (2.93). For the same compound, the “Anxiety score change from baseline Median” value (Visit 6, nociceptive) was 0.0, the “Anxiety score Mean (SD)” value [12] was 7.1 (3.46) and the “Anxiety score Median” value [12] was 7.5. The “Anxiety score Mean (SD)” value [13] was 6.9 (3.99), the “Anxiety score Median” value [13] was 6.0 and the “Anxiety score change … (SD)” value [14] was −1.5 (3.47). For the same compound, the “Anxiety score change from baseline Median” value [14] was −1.0, the “Anxiety score Mean (SD)” value [15] was 6.9 (3.75) and the “Anxiety score Median” value [15] was 6.0. For the same compound, the “Anxiety score Mean (SD)” value [16] was 5.8 (4.68), the “Anxiety score Median” value [16] was 5.0 and the “Anxiety score change … (SD)” value (Visit 6, total) was −1.2 (3.36). For the same compound, the “Anxiety score change from baseline Median” value (Visit 6, total) was −1.0, the “Anxiety score Mean (SD)” value (Visit 6, total subjects N=175) was 6.6 (4.02) and the “Anxiety score Median” value (Visit 6, total subjects N=175) was 6.0. For the same compound, the “Anxiety score Mean (SD)” value [17] was 6.1 (3.91), the “Anxiety score Median” value [17] was 6.0 and the “Anxiety score Mean (SD)” value [18] was 6.1 (3.85). For the same compound, the “Anxiety score Median” value [18] was 6.0, the “Anxiety score Mean (SD)” value [19] was 5.9 (4.08) and the “Anxiety score Median” value [19] was 5.5. The “Anxiety score Mean (SD)” value [20] was 6.0 (3.95), the “Anxiety score Median” value [20] was 6.0 and the “Anxiety score Mean (SD)” value [21] was 5.6 (4.15). For the same compound, the “Anxiety score Median” value [21] was 5.0, the “Anxiety score Mean (SD)” value (Visit 7, total subjects N=175) was 5.9 (3.99) and the “Anxiety score Median” value (Visit 7, total subjects N=175) was 6.0. The “Anxiety score change … (SD)” value (Visit 8) was −2.9 (3.11), the “Anxiety score change from baseline Median” value (Visit 8) was −2.0 and the “Anxiety score change … (SD)” value (Visit 8, defined neuropathic) was −2.2 (3.77). The “Anxiety score change from baseline Median” value (Visit 8, defined neuropathic) was −2.0, the “Anxiety score Mean (SD)” value [22] was 6.0 (3.66) and the “Anxiety score Median” value [22] was 5.0. The “Anxiety score change … (SD)” value (Visit 8, lumbar radiculopathy) was −2.4 (4.23), the “Anxiety score change from baseline Median” value (Visit 8, lumbar radiculopathy) was −1.0 and the “Anxiety score change … (SD)” value (Visit 8, nociceptive) was −0.7 (3.88). For the same compound, the “Anxiety score change from baseline Median” value (Visit 8, nociceptive) was −1.0 and the “Anxiety score Mean (SD)” value (Visit 8, positive diagnosis of lumbar radiculopathy-neuropathic pain subset N=44) was 5.9 (3.74).

From patent US9980927B2, “Use of tapentadol for inhibiting and/or treating depression and anxiety” (Gruenenthal GmbH, priority 2011, dated 2018)
